Source: article PMC11200585, “Prospects for Prostate Cancer Chemotherapy: Cytotoxic Evaluation and Mechanistic Insights of Quinolinequinones with ADME/PK Profile” (Biomedicines, 2024)

Columns and labels:
Type in all cases: cell-based, human
CCRF-CEM = assay: NCI-60 one-dose screen (leukemia); settings: 10 µM single dose; for GP (growth percentage): 48 h; for inhibition at 10 µM: Homo sapiens
Procedure: (§1) The obtained quinolinequinones were submitted to NCI, Bethesda, USA, and, as per standard protocol of NCI, all compounds were evaluated for their antiproliferative activity at single-dose assay (10 µM concentration in DMSO) on a panel of 60 cancer cell lines derived from leukemia, non-small-cell lung, colon, CNS, melanoma, ovarian, renal, prostate, and breast, as per protocol. Tested compounds were added to the microtiter culture plates followed by incubation for 48 h at 37 °C. Sulforhodamine B (SRB), a protein-binding dye, is used for endpoint determination. The percent of the growth of the treated cells was determined in comparison to the untreated control cells and the results of each tested compound were reported. Data from one-dose experiments pertain to the percentage growth at 10 μM [16, 17, 18].

HL-60(TB) [1] = assay: NCI-60 one-dose screen (leukemia); settings: 10 µM single dose, 48 h
Procedure: as §1

K-562 = assay: NCI-60 one-dose screen (leukemia); settings: for GP (growth percentage): 10 µM single dose, 48 h
Procedure: as §1

MOLT-4 = assay: NCI-60 one-dose screen (leukemia); settings: 10 µM single dose; for GP (growth percentage): 48 h
Procedure: as §1

RPMI-8226 = assay: NCI-60 one-dose screen (leukemia); settings: 10 µM single dose, 48 h
Procedure: as §1

SR = assay: NCI-60 one-dose screen (leukemia); settings: 10 µM single dose, 48 h
Procedure: as §1

A549/ATCC = assay: NCI-60 one-dose screen (non-small cell lung cancer); settings: 10 µM single dose, 48 h
Procedure: as §1

SF-268 = assay: NCI-60 one-dose screen (CNS cancer); settings: 10 µM single dose, 48 h
Procedure: as §1

SF-295 [2] = assay: NCI-60 one-dose screen (CNS cancer); settings: 10 µM single dose, 48 h
Procedure: as §1

SF-539 = assay: NCI-60 one-dose screen (CNS cancer); settings: 10 µM single dose, 48 h
Procedure: as §1

SNB-19 [3] = assay: NCI-60 one-dose screen (CNS cancer); settings: 10 µM single dose, 48 h
Procedure: as §1

SNB-75 = assay: NCI-60 one-dose screen (CNS cancer); settings: 10 µM single dose, 48 h
Procedure: as §1

U251 = assay: NCI-60 one-dose screen (CNS cancer); settings: for GP (growth percentage): 10 µM single dose, 48 h
Procedure: as §1

IGROV1 = assay: NCI-60 one-dose screen (ovarian cancer); settings: 10 µM single dose, 48 h
Procedure: as §1

NCI/ADR-RES = assay: NCI-60 one-dose screen (ovarian cancer); settings: 10 µM single dose, 48 h
Procedure: as §1

OVCAR-4 = assay: NCI-60 one-dose screen (ovarian cancer); settings: 10 µM single dose, 48 h
Procedure: as §1

OVCAR-5 [4] = assay: NCI-60 one-dose screen (ovarian cancer); settings: 10 µM single dose; for GP (growth percentage): 48 h
Procedure: as §1

OVCAR-8 = assay: NCI-60 one-dose screen (ovarian cancer); settings: 10 µM single dose; for GP (growth percentage): 48 h
Procedure: as §1

SK-OV-3 = assay: NCI-60 one-dose screen (ovarian cancer); settings: 10 µM single dose, 48 h
Procedure: as §1

DU-145 = assay: NCI-60 one-dose screen (prostate cancer); settings: 10 µM single dose, 48 h
Procedure: as §1

PC-3 [5] = assay: NCI-60 one-dose screen (prostate cancer); settings: 10 µM single dose; for GP (growth percentage): 48 h; for inhibition at 10 µM: Homo sapiens
Procedure: as §1

HS 578T = assay: NCI-60 one-dose screen (breast cancer); settings: 10 µM single dose, 48 h
MCF7 = assay: NCI-60 one-dose screen (breast cancer); settings: 10 µM single dose, 48 h
MDA-MB-231/ATCC = assay: NCI-60 one-dose screen (breast cancer); settings: 10 µM single dose, 48 h
HL-60(TB) [6] = assay: NCI-60 five-dose assay (leukemia); settings: 48 h, SRB; for GI50 / CC50: Homo sapiens; for CC50: read-out: LC50 (the source's name)
NCI-H23 = assay: NCI-60 five-dose assay (non-small cell lung cancer); settings: 48 h, SRB; for GI50 / CC50: Homo sapiens; for CC50: read-out: LC50 (the source's name)
HCT-15 = assay: NCI-60 five-dose assay (colon cancer); settings: 48 h, SRB
SF-295 [7] = assay: NCI-60 five-dose assay (CNS cancer); settings: 48 h, SRB; for GI50 / LC50 (50% lethal concentration): Homo sapiens
SNB-19 [8] = assay: NCI-60 five-dose assay (CNS cancer); settings: 48 h, SRB; for GI50 / CC50: Homo sapiens; for CC50: read-out: LC50 (the source's name)
MALME-3M = assay: NCI-60 five-dose assay (melanoma); settings: 48 h, SRB; for GI50 / LC50: Homo sapiens
M14 = assay: NCI-60 five-dose assay (melanoma); settings: 48 h, SRB; for GI50 / LC50: Homo sapiens
SK-MEL-2 = assay: NCI-60 five-dose assay (melanoma); settings: 48 h, SRB; for GI50 / CC50: Homo sapiens; for CC50: read-out: LC50 (the source's name)
SK-MEL-5 = assay: NCI-60 five-dose assay (melanoma); settings: 48 h, SRB; for GI50 / CC50: Homo sapiens; for CC50: read-out: LC50 (the source's name)
OVCAR-5 [9] = assay: NCI-60 five-dose assay (ovarian cancer); settings: 48 h, SRB; for GI50 / LC50 (lethal concentration 50%): Homo sapiens
ACHN = assay: NCI-60 five-dose assay (renal cancer); settings: 48 h, SRB; for GI50 / LC50: Homo sapiens
UO-31 = assay: NCI-60 five-dose assay (renal cancer); settings: 48 h, SRB; for GI50 / LC50 (lethal concentration 50%): Homo sapiens
PC-3 [10] = assay: NCI-60 five-dose assay (prostate cancer); settings: 48 h, SRB; for GI50 / CC50: Homo sapiens; for CC50: read-out: LC50 (the source's name)
T-47D = assay: NCI-60 five-dose assay (breast cancer); settings: 48 h, SRB; for GI50 / CC50: Homo sapiens, T47D; for CC50: read-out: LC50 (the source's name)
MDA-MB-468 = assay: NCI-60 five-dose assay (breast cancer); settings: 48 h, SRB; for GI50 / LC50: Homo sapiens

## COc1cc(NC2=C(Cl)C(=O)c3nc(C)ccc3C2=O)cc(OC)c1 [AQQ5]
CCRF-CEM
  GP (growth percentage): 2.72%
  inhibition at 10 µM: 97.3%
HL-60(TB) [1]
  GP (growth percentage): −13.44%
K-562
  GP (growth percentage): 4.73%
K-562; Homo sapiens, K562, 10 µM single dose
  inhibition at 10 µM: 95.3%
MOLT-4
  GP (growth percentage): 8.29%
MOLT-4; Homo sapiens
  inhibition at 10 µM: 91.7%
RPMI-8226
  GP (growth percentage): −39.66%
SR
  GP (growth percentage): −3.19%
A549/ATCC
  GP (growth percentage): 42.41%
SF-268
  GP (growth percentage): 37.00%
SF-295 [2]
  GP (growth percentage): 51.57%
SF-539
  GP (growth percentage): −30.92%
SNB-19 [3]
  GP (growth percentage): 30.42%
SNB-75
  GP (growth percentage): −4.09%
U251
  GP (growth percentage): 36.76%
IGROV1
  GP (growth percentage): −23.13%
NCI/ADR-RES
  GP (growth percentage): −1.26%
OVCAR-4
  GP (growth percentage): −93.28%
OVCAR-5 [4]
  GP (growth percentage): 22.00%
OVCAR-5 [4]; Homo sapiens
  inhibition at 10 µM: 78%
OVCAR-8
  GP (growth percentage): −0.82%
SK-OV-3
  GP (growth percentage): 93.82%
DU-145
  GP (growth percentage): −92.99%
PC-3 [5]
  GP (growth percentage): 27.99%
  inhibition at 10 µM: 72%
HS 578T
  GP (growth percentage): −32.78%
MCF7
  GP (growth percentage): −51.73%
MDA-MB-231/ATCC
  GP (growth percentage): −28.56%
HL-60(TB) [6]
  TGI: 4.65 µM
  GI50: 1.38 µM
  CC50: > 100 µM
NCI-H23
  TGI: 3.15 µM
  GI50: 1.53 µM
  CC50: 6.49 µM
HCT-15
  TGI: 3.92 µM
HCT-15; Homo sapiens
  GI50: 1.54 µM
SF-295 [7]
  TGI: 5.41 µM
  GI50: 1.99 µM
  LC50 (50% lethal concentration): 20.8 µM
SNB-19 [8]
  TGI: 18.8 µM
  GI50: 5.82 µM
  CC50: 44.2 µM
MALME-3M
  TGI: 3.28 µM
  GI50: 1.76 µM
  LC50: 6.11 µM
M14
  TGI: 3.09 µM
  GI50: 1.69 µM
  LC50: 5.66 µM
SK-MEL-2
  TGI: 3.10 µM
  GI50: 1.59 µM
  CC50: 6.03 µM
SK-MEL-5
  TGI: 2.97 µM
  GI50: 1.62 µM
  CC50: 5.47 µM
OVCAR-5 [9]
  TGI: 5.79 µM
  GI50: 2.38 µM
  LC50 (lethal concentration 50%): 23.7 µM
ACHN
  TGI: 3.04 µM
  GI50: 1.67 µM
  LC50: 5.51 µM
UO-31
  TGI: 3.06 µM
  GI50: 1.69 µM
  LC50 (lethal concentration 50%): 5.53 µM
PC-3 [10]
  TGI: 10.4 µM
  GI50: 2.56 µM
  CC50: 43.6 µM
T-47D
  TGI: 3.62 µM
  GI50: 1.5 µM
  CC50: 8.74 µM
MDA-MB-468
  TGI: 2.57 µM
  GI50: 1.23 µM
  LC50: 5.37 µM

## CCOc1ccc(NC2=C(Cl)C(=O)c3nc(C)ccc3C2=O)cc1 [AQQ3]
CCRF-CEM
  GP (growth percentage): 0.63%
  inhibition at 10 µM: 99.4%
HL-60(TB) [1]
  GP (growth percentage): −46.39%
K-562
  GP (growth percentage): −4.17%
MOLT-4
  GP (growth percentage): −46.73%
RPMI-8226
  GP (growth percentage): −19.35%
SR
  GP (growth percentage): −27.42%
A549/ATCC
  GP (growth percentage): 46.18%
SF-268
  GP (growth percentage): 32.33%
SF-295 [2]
  GP (growth percentage): 51.05%
SF-539
  GP (growth percentage): −58.82%
SNB-19 [3]
  GP (growth percentage): 44.68%
SNB-75
  GP (growth percentage): 96.54%
U251
  GP (growth percentage): 15.60%
U251; Homo sapiens, U-251, 10 µM single dose
  inhibition at 10 µM: 84.4%
IGROV1
  GP (growth percentage): −82.43%
NCI/ADR-RES
  GP (growth percentage): −15.63%
OVCAR-4
  GP (growth percentage): −97.52%
OVCAR-5 [4]
  GP (growth percentage): 54.83%
OVCAR-8
  GP (growth percentage): 1.03%
OVCAR-8; Homo sapiens
  inhibition at 10 µM: 99%
SK-OV-3
  GP (growth percentage): 79.78%
DU-145
  GP (growth percentage): −92.73%
PC-3 [5]
  GP (growth percentage): 10.40%
  inhibition at 10 µM: 89.6%
HS 578T
  GP (growth percentage): 48.97%
MCF7
  GP (growth percentage): −66.97%
MDA-MB-231/ATCC
  GP (growth percentage): −71.74%
HL-60(TB) [6]
  TGI: 4.18 µM
  GI50: 1.47 µM
  CC50: > 100 µM
NCI-H23
  TGI: 2.85 µM
  GI50: 1.35 µM
  CC50: 6.03 µM
HCT-15
  TGI: 2.94 µM
HCT-15; Homo sapiens
  GI50: 1.3 µM
HCT-15; Homo sapiens, read-out: LC50 (the source's name)
  CC50: 6.66 µM
SF-295 [7]
  TGI: 3.43 µM
  GI50: 1.86 µM
  LC50 (50% lethal concentration): 6.3 µM
SNB-19 [8]
  TGI: 3.16 µM
  GI50: 1.68 µM
  CC50: 5.94 µM
MALME-3M
  TGI: 3.16 µM
  GI50: 1.65 µM
  LC50: 6.02 µM
M14
  TGI: 3.23 µM
  GI50: 1.68 µM
  LC50: 6.21 µM
SK-MEL-2
  TGI: 3.03 µM
  GI50: 1.63 µM
  CC50: 5.64 µM
SK-MEL-5
  TGI: 3.11 µM
  GI50: 1.72 µM
  CC50: 5.62 µM
OVCAR-5 [9]
  TGI: 3.46 µM
  GI50: 1.92 µM
  LC50 (lethal concentration 50%): 6.25 µM
ACHN
  TGI: 2.92 µM
  GI50: 1.57 µM
  LC50: 5.45 µM
UO-31
  TGI: 2.75 µM
  GI50: 1.43 µM
  LC50 (lethal concentration 50%): 5.28 µM
PC-3 [10]
  TGI: 2.77 µM
  GI50: 1.29 µM
  CC50: 5.93 µM
T-47D
  TGI: 3.91 µM
  GI50: 1.01 µM
  CC50: > 100 µM
MDA-MB-468
  TGI: 2.92 µM
  GI50: 1.49 µM
  LC50: 5.75 µM
